From PubChem BioAssay (NCI)
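Dose response: 5 concentrations. Exposure: 48 h. Format: 96-well plates. Endpoint: linear interpolation; highest concentration if not reached. GI50 marks 50% less growth. TGI marks complete inhibition of growth.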

How the values were obtained:
Experiment in all cases: NCI anticancer screen, dose series, 48 h
SNB-19 CNS = tested on: SNB-19 CNS
RXF 393 renal = tested on: RXF 393 renal
OVCAR-3 ovarian = tested on: OVCAR-3 ovarian
NCI/ADR-RES ovarian = tested on: NCI/ADR-RES ovarian
DU-145 prostate = tested on: DU-145 prostate
HCT-116 colon = tested on: HCT-116 colon
MDA-MB-435 = tested on: MDA-MB-435
PC-3 prostate = tested on: PC-3 prostate
CCRF-CEM leukemia = tested on: CCRF-CEM leukemia
HT29 colon = tested on: HT29 colon
K-562 leukemia = tested on: K-562 leukemia
U251 CNS = tested on: U251 CNS
SK-MEL-2 melanoma = tested on: SK-MEL-2 melanoma
T-47D breast = tested on: T-47D breast
NCI-H460 lung = tested on: NCI-H460 lung
SF-539 CNS = tested on: SF-539 CNS
UO-31 renal = tested on: UO-31 renal
SNB-75 CNS = tested on: SNB-75 CNS
EKVX NSCLC = tested on: EKVX NSCLC
SK-MEL-5 melanoma = tested on: SK-MEL-5 melanoma
HL-60(TB) leukemia = tested on: HL-60(TB) leukemia
SK-OV-3 ovarian = tested on: SK-OV-3 ovarian
HOP-92 NSCLC = tested on: HOP-92 NSCLC
CAKI-1 renal = tested on: CAKI-1 renal
IGROV1 ovarian = tested on: IGROV1 ovarian
SK-MEL-28 melanoma = tested on: SK-MEL-28 melanoma
NCI-H226 lung = tested on: NCI-H226 lung
UACC-257 melanoma = tested on: UACC-257 melanoma
HS 578T breast = tested on: HS 578T breast
SF-295 CNS = tested on: SF-295 CNS
LOX IMVI melanoma = tested on: LOX IMVI melanoma
MCF7 breast = tested on: MCF7 breast
SN12C renal = tested on: SN12C renal
BT-549 breast = tested on: BT-549 breast
RPMI-8226 leukemia = tested on: RPMI-8226 leukemia
HCC-2998 colon = tested on: HCC-2998 colon
OVCAR-8 ovarian = tested on: OVCAR-8 ovarian
KM12 colon = tested on: KM12 colon
MALME-3M melanoma = tested on: MALME-3M melanoma
SW-620 colon = tested on: SW-620 colon
NCI-H522 lung = tested on: NCI-H522 lung
MDA-MB-231 breast = tested on: MDA-MB-231 breast
HCT-15 colon = tested on: HCT-15 colon
TK-10 renal = tested on: TK-10 renal
ACHN renal = tested on: ACHN renal
A498 renal = tested on: A498 renal
NCI-H23 lung = tested on: NCI-H23 lung
786-0 renal = tested on: 786-0 renal
OVCAR-5 ovarian = tested on: OVCAR-5 ovarian
UACC-62 melanoma = tested on: UACC-62 melanoma
HOP-62 NSCLC = tested on: HOP-62 NSCLC
SF-268 CNS = tested on: SF-268 CNS
SR leukemia = tested on: SR leukemia
MOLT-4 leukemia = tested on: MOLT-4 leukemia
OVCAR-4 ovarian = tested on: OVCAR-4 ovarian
A549 NSCLC = tested on: A549 NSCLC

With `CCCN(CCC)C(=O)[C@H](CC)[C@@H]1CC[C@@H](C)[C@@H]([C@H](C)[C@@H](O)[C@@H](C)C(=O)[C@H](CC)C2O[C@]3(C=C[C@@H](O)[C@]4(CC[C@@](C)([C@H]5CC[C@](O)(CC)[C@H](C)O5)O4)O3)[C@H](C)C[C@@H]2C)O1` (some centres not stated) the GI50 (SNB-19 CNS) was 3.36 µM, the TGI (SNB-19 CNS) was 59.2 µM and the GI50 (RXF 393 renal) was 1.71 µM. The TGI (RXF 393 renal) was 4.04 µM, the GI50 (OVCAR-3 ovarian) was 1.84 µM and the TGI (OVCAR-3 ovarian) was 4.46 µM. It also gave a GI50 (NCI/ADR-RES ovarian) of 2.93 µM, a TGI (NCI/ADR-RES ovarian) of 10.3 µM and a GI50 (DU-145 prostate) of 2.05 µM. The TGI (DU-145 prostate) was 4.21 µM, the GI50 (HCT-116 colon) was 2.16 µM and the TGI (HCT-116 colon) was 5.98 µM. It also gave a GI50 (MDA-MB-435) of 2.96 µM, a TGI (MDA-MB-435) of 9.71 µM and a GI50 (PC-3 prostate) of 2.05 µM. For the same compound, the TGI (PC-3 prostate) was 11 µM, the GI50 (CCRF-CEM leukemia) was 2.78 µM and the TGI (CCRF-CEM leukemia) was 8.83 µM. For the same compound, the GI50 (HT29 colon) was 3.1 µM, the TGI (HT29 colon) was 12.7 µM and the GI50 (K-562 leukemia) was 2.68 µM. The TGI (K-562 leukemia) was 13 µM, the GI50 (U251 CNS) was 2.87 µM and the TGI (U251 CNS) was 9.87 µM. It also gave a GI50 (SK-MEL-2 melanoma) of 2.43 µM, a TGI (SK-MEL-2 melanoma) of 6.63 µM and a GI50 (T-47D breast) of 3.08 µM. It also gave a TGI (T-47D breast) of 14.5 µM, a GI50 (NCI-H460 lung) of 2.07 µM and a TGI (NCI-H460 lung) of 4.62 µM. The GI50 (SF-539 CNS) was 2.06 µM, the TGI (SF-539 CNS) was 4.2 µM and the GI50 (UO-31 renal) was 2.12 µM. It also gave a TGI (UO-31 renal) of 7.03 µM, a GI50 (SNB-75 CNS) of 1.73 µM and a TGI (SNB-75 CNS) of 14.4 µM. It also gave a GI50 (EKVX NSCLC) of 2.59 µM, a TGI (EKVX NSCLC) of 11.7 µM and a GI50 (SK-MEL-5 melanoma) of 1.73 µM. The TGI (SK-MEL-5 melanoma) was 3.16 µM, the GI50 (HL-60(TB) leukemia) was 2.26 µM and the TGI (HL-60(TB) leukemia) was 5.54 µM. It also gave a GI50 (SK-OV-3 ovarian) of 3.29 µM, a TGI (SK-OV-3 ovarian) of 19.9 µM and a GI50 (HOP-92 NSCLC) of 1.29 µM. The TGI (HOP-92 NSCLC) was 4.24 µM, the GI50 (CAKI-1 renal) was 1.95 µM and the TGI (CAKI-1 renal) was 8.7 µM. It also gave a GI50 (IGROV1 ovarian) of 2.59 µM, a TGI (IGROV1 ovarian) of 10.5 µM and a GI50 (SK-MEL-28 melanoma) of 4.5 µM. For the same compound, the TGI (SK-MEL-28 melanoma) was 17.9 µM, the GI50 (NCI-H226 lung) was 1.93 µM and the TGI (NCI-H226 lung) was 5.3 µM. The GI50 (UACC-257 melanoma) was 2.84 µM, the TGI (UACC-257 melanoma) was 9.83 µM and the GI50 (HS 578T breast) was 2.75 µM. For the same compound, the TGI (HS 578T breast) was 9.01 µM, the GI50 (SF-295 CNS) was 2.45 µM and the TGI (SF-295 CNS) was 8.91 µM. For the same compound, the GI50 (LOX IMVI melanoma) was 1.5 µM, the TGI (LOX IMVI melanoma) was 3 µM and the GI50 (MCF7 breast) was 2.46 µM. It also gave a TGI (MCF7 breast) of 7.76 µM, a GI50 (SN12C renal) of 2.13 µM and a TGI (SN12C renal) of 6.1 µM. It also gave a GI50 (BT-549 breast) of 3.05 µM, a TGI (BT-549 breast) of 13.2 µM and a GI50 (RPMI-8226 leukemia) of 1.77 µM. The TGI (RPMI-8226 leukemia) was 6.06 µM, the GI50 (HCC-2998 colon) was 2.18 µM and the TGI (HCC-2998 colon) was 5.76 µM. For the same compound, the GI50 (OVCAR-8 ovarian) was 3.5 µM, the TGI (OVCAR-8 ovarian) was 24.6 µM and the GI50 (KM12 colon) was 1.86 µM. It also gave a TGI (KM12 colon) of 4.02 µM, a GI50 (MALME-3M melanoma) of 1.72 µM and a TGI (MALME-3M melanoma) of 3.71 µM. The GI50 (SW-620 colon) was 3.23 µM, the TGI (SW-620 colon) was 10.6 µM and the GI50 (NCI-H522 lung) was 1.82 µM. It also gave a TGI (NCI-H522 lung) of 4.56 µM, a GI50 (MDA-MB-231 breast) of 1.62 µM and a TGI (MDA-MB-231 breast) of 3.28 µM. The GI50 (HCT-15 colon) was 2.24 µM, the TGI (HCT-15 colon) was 5.61 µM and the GI50 (TK-10 renal) was 3.3 µM. For the same compound, the TGI (TK-10 renal) was 68.3 µM, the GI50 (ACHN renal) was 3.18 µM and the TGI (ACHN renal) was 10.3 µM. It also gave a GI50 (A498 renal) of 2.13 µM, a TGI (A498 renal) of 5.85 µM and a GI50 (NCI-H23 lung) of 2.52 µM. The TGI (NCI-H23 lung) was 7.01 µM, the GI50 (786-0 renal) was 2.79 µM and the TGI (786-0 renal) was 9 µM. It also gave a GI50 (OVCAR-5 ovarian) of 2.09 µM, a TGI (OVCAR-5 ovarian) of 5.27 µM and a GI50 (UACC-62 melanoma) of 1.71 µM. For the same compound, the TGI (UACC-62 melanoma) was 4.93 µM, the GI50 (HOP-62 NSCLC) was 3.33 µM and the TGI (HOP-62 NSCLC) was 13.6 µM. For the same compound, the GI50 (SF-268 CNS) was 3.43 µM, the TGI (SF-268 CNS) was 22.7 µM and the GI50 (SR leukemia) was 2.49 µM. The TGI (SR leukemia) was 7.35 µM, the GI50 (MOLT-4 leukemia) was 2.39 µM and the TGI (MOLT-4 leukemia) was 6.41 µM. It also gave a GI50 (OVCAR-4 ovarian) of 2.95 µM, a TGI (OVCAR-4 ovarian) of 13.2 µM and a GI50 (A549 NSCLC) of 3.18 µM. The TGI (A549 NSCLC) was 26.9 µM.
